For assay [1], the target named is T1, HCV NS3/4A protease complex, BMS strain (UniProt P27958, species not given/STRAIN_BMS).
T1 construct: for H77 and J4L6S; fused on or other part: Three-lysine solubilizing tail at the end of NS4A, for the H77 and J4L6S constructs; Purification on Ni-NTA and the pET21b vector imply a His tag
In words: FRET peptide assay to monitor HCV NS3/4A proteolytic activity (BMS strain). Format: biochemical, HCV genotype 1a. From the text: (§1) HCV NS3 protease complexes, derived from the BMS strain, H77 strain or J4L6S strain, were generated, as described below. These purified recombinant proteins were generated for use in a homogeneous assay (see below) to provide an indication of how effective compounds of the present disclosure would be in inhibiting HCV NS3 proteolytic activity.
Serum from an HCV-infected patient was obtained from Dr. T. Wright, San Francisco Hospital. An engineered full-length cDNA (compliment deoxyribonucleic acid) template of the HCV genome (BMS strain) was constructed from DNA fragments obtained by reverse transcription-PCR (RT-PCR) of serum RNA (ribonucleic acid) and using primers selected on the basis of homology between other genotype 1a strains. From the determination of the entire genome sequence, a genotype 1a was assigned to the HCV isolate according to the classification of Simmonds et al. (See P Simmonds, K A Rose, S Graham, S W Chan, F McOmish, B C Dow, E A Follett, P L Yap and H Marsden, J. Clin. Microbiol., 31(6), 1493-1503 (1993)). […] The infectious clones, H77 (1a genotype) and J4L6S (1b genotype) were obtained from R. Purcell (NIH) and the sequences are published in Genbank (AAB67036, see Yanagi, M., Purcell, R. H., Emerson, S. U. and Bukh, J. Proc. Natl. Acad. Sci. U.S.A. 94(16), 8738-8743 (1997); AF054247, see Yanagi, M., St Claire, M., Shapiro, M., Emerson, S. U., Purcell, R. H. and Bukh, J, Virology 244 (1), 161-172. (1998)).
The H77 and J4L6S strains were used for production of recombinant NS3/4A protease complexes. DNA encoding the recombinant HCV NS3/4A protease complex (amino acids 1027 to 1711) for these strains were manipulated as described by P. Gallinari et al. (see Gallinari P, Paolini C, Brennan D, Nardi C, Steinkuhler C, De Francesco R. Biochemistry. 38(17):5620-32, (1999)). Briefly, a three-lysine solubilizing tail was added at the 3′-end of the NS4A coding region. The cysteine in the P1 position of the NS4A-NS4B cleavage site (amino acid 1711) was changed to a glycine to avoid the proteolytic cleavage of the lysine tag. Furthermore, a cysteine to serine mutation was introduced by PCR at amino acid position 1454 to prevent the autolytic cleavage in the NS3 helicase domain. The variant DNA fragment was cloned in the pET21b bacterial expression vector (Novagen) and the NS3/4A complex was expressed in Escherichia. coli strain BL21 (DE3) (Invitrogen) following the protocol described by P. Gallinari et al. (see Gallinari P, Brennan D, Nardi C, Brunetti M, Tomei L, Steinkuhler C, De Francesco R., J Virol. 72(8):6758-69 (1998)) with modifications. Briefly, the NS3/4A protease complex expression was induced with 0.5 millimolar (mM) Isopropyl β-D-1-thiogalactopyranoside (IPTG) for 22 hours (h) at 20° C. A typical fermentation (1 Liter (L)) yielded approximately 10 grams (g) of wet cell paste. The cells were resuspended in lysis buffer (10 mL/g) consisting of 25 mM N-(2-Hydroxyethyl)Piperazine-N′-(2-Ethane Sulfonic acid) (HEPES), pH 7.5, 20% glycerol, 500 mM Sodium Chloride (NaCl), 0.5% Triton X-100, 1 microgram/milliliter (“μg/mL”) lysozyme, 5 mM Magnesium Chloride (MgCl2), 1 μg/ml DnaseI, 5 mM β-Mercaptoethanol (βME), Protease inhibitor-Ethylenediamine Tetraacetic acid (EDTA) free (Roche), homogenized and incubated for 20 minutes (min) at 4° C. The homogenate was sonicated and clarified by ultra-centrifugation at 235000 g for 1 h at 4° C. Imidazole was added to the supernatant to a final concentration of 15 mM and the pH adjusted to 8.0. The crude protein extract was loaded on a Nickel-Nitrilotriacetic acid (Ni-NTA) column pre-equilibrated with buffer B (25 mM HEPES, pH 8.0, 20% glycerol, 500 mM NaCl, 0.5% Triton X-100, 15 mM imidazole, 5 mM βME). The sample was loaded at a flow rate of 1 mL/min. The column was washed with 15 column volumes of buffer C (same as buffer B except with 0.2% Triton X-100). The protein was eluted with 5 column volumes of buffer D (same as buffer C except with 200 mM Imidazole). […]

Assay [2] has as its target T2, HCV NS3/4A protease complex, H77 strain (Hepatitis C virus genotype 1a, UniProt P27958, C1454S/C1711G).
T2 construct: recombinant HCV NS3/4A protease complex (amino acids 1027 to 1711) for these strains; His tag (inferred from pET21b vector and Ni-NTA purification); made in house; host or cells: Escherichia coli BL21 (DE3), pET21b
In words: FRET peptide assay to monitor HCV NS3/4A proteolytic activity (H77 strain). It is filed as biochemical, HCV genotype 1a.
Excerpt: as §1
Serum from an HCV-infected patient was obtained from Dr. T. Wright, San Francisco Hospital. An engineered full-length cDNA (compliment deoxyribonucleic acid) template of the HCV genome (BMS strain) was constructed from DNA fragments obtained by reverse transcription-PCR (RT-PCR) of serum RNA (ribonucleic acid) and using primers selected on the basis of homology between other genotype 1a strains. From the determination of the entire genome sequence, a genotype 1a was assigned to the HCV isolate according to the classification of Simmonds et al. (See P Simmonds, K A Rose, S Graham, S W Chan, F McOmish, B C Dow, E A Follett, P L Yap and H Marsden, J. Clin. Microbiol., 31(6), 1493-1503 (1993)). […]

In assay [3] the test system is human pancreatic chymotrypsin. In words: Specificity assay, chymotrypsin (pNA substrate). Particulars: read-out: Chymotrypsin activity in the specificity assays (IC50). It is filed as biochemical. The procedure: The specificities of compounds of the present disclosure were determined against a variety of serine proteases: human neutrophil elastase (HNE), porcine pancreatic elastase (PPE) and human pancreatic chymotrypsin and one cysteine protease: human liver cathepsin B. In all cases, a 96-well plate format protocol using colorimetric p-nitroaniline (pNA) substrate or fluorometric Amino-Methyl-Coumarin (AMC) substrate, specific for each enzyme was used as described previously (PCT Patent Application No. WO 00/09543) with some modifications. All enzymes were purchased from Sigma or EMDbiosciences while the substrates were from Bachem.
Each pNA assay included a 2 h enzyme-inhibitor pre-incubation at room temperature followed by addition of substrate and hydrolysis to ˜15% conversion as measured on a Spectramax Pro microplate reader. The cathepsin B assay was initiated by adding substrate to a 10 min enzyme-inhibitor pre-incubation at room temperature, and the assay plate measured immediately using the Cytofluor Series 4000. Compound concentrations varied from 100 to 0.4 μM depending on their potency.
The final conditions for each assay were as follows: […]
The percentage of inhibition was calculated using the formula: [1−((UVinh−UVblank)/(UVctl−UVblank))]×100 […]

Read-outs that look alike come from different tables or passages of the source.

Among the data in patent publication US7741281B2, “Hepatitis C virus inhibitors” (Bristol-Myers Squibb Company, priority 2005, dated 2010) are IC50 values, retold here.

T1 sequence (P27958 1027-1657, change not shown, one chain of several): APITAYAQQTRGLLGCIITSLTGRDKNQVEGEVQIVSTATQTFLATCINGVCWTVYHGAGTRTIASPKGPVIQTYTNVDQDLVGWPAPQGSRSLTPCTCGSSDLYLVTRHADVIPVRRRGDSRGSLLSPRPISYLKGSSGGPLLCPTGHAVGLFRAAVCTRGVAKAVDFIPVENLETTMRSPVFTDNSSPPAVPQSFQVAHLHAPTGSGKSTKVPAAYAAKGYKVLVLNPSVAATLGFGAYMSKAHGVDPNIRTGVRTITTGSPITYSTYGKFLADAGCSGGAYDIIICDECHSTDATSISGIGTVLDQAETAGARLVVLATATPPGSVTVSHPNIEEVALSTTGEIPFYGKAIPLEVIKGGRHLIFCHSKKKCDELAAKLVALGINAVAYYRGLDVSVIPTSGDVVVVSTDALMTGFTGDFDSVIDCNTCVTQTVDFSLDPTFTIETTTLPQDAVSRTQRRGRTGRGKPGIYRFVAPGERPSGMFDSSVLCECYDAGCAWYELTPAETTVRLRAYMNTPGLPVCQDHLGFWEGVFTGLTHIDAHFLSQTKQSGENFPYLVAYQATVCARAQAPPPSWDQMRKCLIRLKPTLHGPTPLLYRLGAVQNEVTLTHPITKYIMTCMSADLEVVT
T2 sequence (P27958 1027-1711 C1454S/C1711G, one chain of several): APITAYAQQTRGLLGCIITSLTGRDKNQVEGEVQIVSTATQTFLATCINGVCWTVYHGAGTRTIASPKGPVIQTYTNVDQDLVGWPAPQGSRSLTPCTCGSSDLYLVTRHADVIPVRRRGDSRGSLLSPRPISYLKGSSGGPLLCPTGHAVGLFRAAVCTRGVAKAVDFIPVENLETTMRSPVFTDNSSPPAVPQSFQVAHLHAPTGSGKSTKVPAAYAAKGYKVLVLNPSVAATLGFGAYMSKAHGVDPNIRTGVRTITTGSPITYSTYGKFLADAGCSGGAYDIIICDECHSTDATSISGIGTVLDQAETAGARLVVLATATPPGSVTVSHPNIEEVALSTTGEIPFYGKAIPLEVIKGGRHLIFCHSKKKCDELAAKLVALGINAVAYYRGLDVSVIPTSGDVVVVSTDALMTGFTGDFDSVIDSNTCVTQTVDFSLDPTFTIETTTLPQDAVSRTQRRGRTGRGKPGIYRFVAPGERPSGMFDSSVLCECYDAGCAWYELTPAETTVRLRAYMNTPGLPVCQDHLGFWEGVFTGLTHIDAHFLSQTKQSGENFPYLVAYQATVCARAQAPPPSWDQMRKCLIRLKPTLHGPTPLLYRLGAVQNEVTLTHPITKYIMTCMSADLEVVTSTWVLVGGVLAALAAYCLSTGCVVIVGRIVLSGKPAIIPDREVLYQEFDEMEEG

As to `COc1c(O[C@@H]2C[C@H]3C(=O)N[C@]4(C(=O)NS(=O)(=O)C5CC5)C[C@H]4/C=C\CCCCC[C@H](NC(=O)OC(C)(C)C)C(=O)N3C2)ccc2c(Cl)nccc12` [Compound 3], the IC50 was 2.8 nM in assay [1] (BMS strain, read-out: IC50 against the NS3/4A BMS strain in the enzyme assay); < 100 nM in assay [1] (NS3/4A BMS strain, read-out: IC50 Activity Range); 0.6 nM in assay [2]; > 100000 nM in assay [3].
